Data set [1] is described as follows: In vitro test: antagonistic effect on leukotriene D4-induced contraction of excised guinea pig terminal ileum. In kind it is cell-based, guinea pig (male, Hartley strain). The note with it: guinea pig terminal ileum contraction, leukotriene D4 0.3 ng/ml, with atropine and mepyramine; for IC50: Cavia porcellus. As for the experimental part:
(§1) The antagonistic effect on leukotriene D4 of the present compounds [I] was tested by using the terminal ileum excised from a male guinea pig of the Hartley strain. Specifically, the terminal ileum was suspended, under aerated conditions, in 10 ml of Tyrode's solution containing 5×10^-7 M atropine and 1×10^-6 M mepyramine. Then, a test compound and leukotriene D4 (manufactured by Wako Junyaku Co., Ltd.) were successively added thereto with an interval of 30 seconds. After the lapse of 4 to 6 minutes, the degree of contraction of the ileum was measured with a Model TD-112S Isotonic Transducer (manufactured by Nippon Koden Co., Ltd.). The test compound and leukotriene D4 were used in such amounts as to give concentrations of 10^-9 to 10^-3 g/ml and 0.3 ng/ml, respectively.
(§2) The antagonistic effect on leukotriene D4 of each test compound was evaluated in terms of the concentration of the test compound at which the ileum contraction reaction induced by leukotriene D4 was inhibited by 50% (hereinafter referred to as IC50) Specifically, at varying concentrations of each test compound, the percent inhibition of contraction was calculated from the measured degree of contraction of the ileum according the following equation [formula] On the basis of the data thus obtained, a dose-response curve was prepared and used to determine the IC50 value of the test compound.

A short description of data set [2]: Toxicity test: acute toxicity (LD50) in mice. The note with it: mouse, in vivo. The procedure: (§3) The acute toxicity (LD50) of several typical examples of the present compounds [I] was tested of 5-weeks-old male ddY strain mice and male SD straih rats. For this purpose, the compounds of Examples 2 and 4 were selected as typical examples. […] For rats, their LD50 values were not less than 4.0 g/kg when administered orally, and not less than 200 mg/kg when administered intravenously.

Data set [3] in a line: Toxicity test: acute toxicity (LD50) in rats. Particulars: rat, in vivo. As for the experimental part:
as §3

A further data set has as its system leukotriene D4. Put plainly: In vitro test: antagonistic effect on leukotriene D4-induced contraction of excised guinea pig terminal ileum. In kind it is cell-based, guinea pig (male, Hartley strain). Particulars: confirmatory experiment by the inventors; result in words. The procedure: as §1, §2

Converted amounts (≈) assume the structure as drawn. Structures can show the parent of a compound that is named as a salt.

`CCCc1c(OCc2cccn3c(=O)c(C(=O)O)cnc23)ccc(C(C)=O)c1O` [Example 1, 9-(4-Acetyl-3-hydroxy-2-n-propylphenoxymethyl)-4-oxo-pyrido[1,2-a]pyrimidine-3-carboxylic acid] yielded an IC50 in data set [1] of 0.03 µg/mL (≈ 0.0757 µM).
Still for that read-out and setting: the value for `CCCc1c(OCc2cc(Br)cn3c(=O)c(CCC(=O)O)cnc23)ccc(C(C)=O)c1O` [Example 5, 3-[9-(4-Acetyl-3-hydroxy-2-n-propylphenoxymethyl)-7-bromo-4-oxo-pyrido[1,2-a]pyrimidin-3-yl]propionic acid] was 0.3 µg/mL (≈ 0.596 µM).
`CCCc1c(OCc2cccn3c(=O)c(CCC(=O)O)cnc23)ccc(C(C)=O)c1O` [Example 4, 3-[9-(4-Acetyl-3-hydroxy-2-n-propylphenoxymethyl)-4-oxo-pyrido[1,2-a]pyrimidin-3-yl]propionic acid]: the 50% lethal dose (LD50) in data set [2] (intravenous) was ≥ 100 mg/kg; in data set [2] (oral), ≥ 4000 mg/kg; in data set [3] (intravenous) it was ≥ 200 mg/kg; in data set [3] (oral) it was ≥ 4000 mg/kg. Further, the “Antagonistic effect on leukotriene D4 IC50” value in data set [1] stood at 0.01 µg/mL.
As to `CCCc1c(OCc2cccn3c(=O)c(CCC(=O)O)cnc23)ccc(C(C)=O)c1O` [Example 7, 3-[9-(4-Acetyl-3-hydroxy-2-n-propylphenoxymethyl)-4-oxo-pyrido[1,2-a]pyrimidin-3-yl]propionic acid potassium salt], in data set [1] (potassium salt), the “Antagonistic effect on leukotriene D4 IC50” value was 0.03 µg/mL.
With `CCCc1c(OCc2cccn3c(=O)c(CC(=O)O)cnc23)ccc(C(C)=O)c1O` [Example 2, [9-(4-Acetyl-3-hydroxy-2-n-propylphenoxymethyl)-4-oxo-pyrido[1,2-a]pyrimidin-3-yl]acetic acid], the 50% lethal dose (LD50) in data set [2] (intravenous) is ≥ 100 mg/kg; in data set [2] (oral), ≥ 4000 mg/kg; in data set [3] (intravenous), ≥ 200 mg/kg; in data set [3] (oral), ≥ 4000 mg/kg. In addition, in data set [1], the midpoint of inhibition, the IC50, lay at 0.04 µg/mL (≈ 0.0975 µM).
`CCCc1c(OCc2ccc3ncc(CCC(=O)O)c(=O)n3c2)ccc(C(C)=O)c1O` [Example 6, 3-[7-(4-acetyl-3-hydroxy-2-n-propylphenoxymethyl)-4-oxo-pyrido[1,2-a]pyrimidin-3-yl]propionic acid] showed a 50% inhibitory concentration (IC50) in data set [1] of 0.4 µg/mL (≈ 0.942 µM).
Regarding `O=C(O)c1cnc2c(OCc3ccccc3)cccn2c1=O` [Compound A, 9-Benzyloxy-4-oxo-pyrido[1,2-a]pyrimidine-3-carboxylic acid, reference compound], the half-maximal inhibitory concentration (IC50) in data set [1] was ≥ 10 µg/mL. Further, in the data set on leukotriene D4, the “antagonistic effect on SRS-A as represented by leukotriene D4” value is reported as “no antagonistic effect on SRS-A”.
Take `CCCc1c(OCc2c(C)ccn3c(=O)c(CC(=O)O)cnc23)ccc(C(C)=O)c1O` [Example 3, [9-(4-Acetyl-3-hydroxy-2-n-propylphenoxymethyl)-8-methyl-4-oxo-pyrido[1,2-a]pyrimidin-3-yl]acetic acid]: the IC50 in data set [1] came out at 0.8 µg/mL (≈ 1.88 µM).

The values are drawn from US4798832A, “Pyrido[1,2-a]pyrimidine compounds, corresponding intermediates and use as SRS-A antagonists” (Tokyo Tanabe Company, Limited, priority 1986, dated 1989).
